27 molecules from patent US20230008368A1, “IMIDAZOQUINOLINE SUBSTITUTED PHOSPHORIC ESTER AGONIST, AND PREPARATION THEREFOR AND APPLICATION THEREOF” (SUZHOU ZELGEN BIOPHARMACEUTICALS CO., LTD., priority 2019, published 2023) can be followed below.

For orientation: pEC50 means the EC50 on a negative log10 scale, so that one unit is a factor of ten. The term CC50 denotes the concentration giving 50% cytotoxicity. A low value points to greater toxicity to the cells.

One series has as its target T1, hTLR8 (Homo sapiens, UniProt Q9NR97).
T1 construct: expressed in transfected cells; host or cells: HEK-Blue hTLR cells
T1 sequence (Q9NR97 27-1041): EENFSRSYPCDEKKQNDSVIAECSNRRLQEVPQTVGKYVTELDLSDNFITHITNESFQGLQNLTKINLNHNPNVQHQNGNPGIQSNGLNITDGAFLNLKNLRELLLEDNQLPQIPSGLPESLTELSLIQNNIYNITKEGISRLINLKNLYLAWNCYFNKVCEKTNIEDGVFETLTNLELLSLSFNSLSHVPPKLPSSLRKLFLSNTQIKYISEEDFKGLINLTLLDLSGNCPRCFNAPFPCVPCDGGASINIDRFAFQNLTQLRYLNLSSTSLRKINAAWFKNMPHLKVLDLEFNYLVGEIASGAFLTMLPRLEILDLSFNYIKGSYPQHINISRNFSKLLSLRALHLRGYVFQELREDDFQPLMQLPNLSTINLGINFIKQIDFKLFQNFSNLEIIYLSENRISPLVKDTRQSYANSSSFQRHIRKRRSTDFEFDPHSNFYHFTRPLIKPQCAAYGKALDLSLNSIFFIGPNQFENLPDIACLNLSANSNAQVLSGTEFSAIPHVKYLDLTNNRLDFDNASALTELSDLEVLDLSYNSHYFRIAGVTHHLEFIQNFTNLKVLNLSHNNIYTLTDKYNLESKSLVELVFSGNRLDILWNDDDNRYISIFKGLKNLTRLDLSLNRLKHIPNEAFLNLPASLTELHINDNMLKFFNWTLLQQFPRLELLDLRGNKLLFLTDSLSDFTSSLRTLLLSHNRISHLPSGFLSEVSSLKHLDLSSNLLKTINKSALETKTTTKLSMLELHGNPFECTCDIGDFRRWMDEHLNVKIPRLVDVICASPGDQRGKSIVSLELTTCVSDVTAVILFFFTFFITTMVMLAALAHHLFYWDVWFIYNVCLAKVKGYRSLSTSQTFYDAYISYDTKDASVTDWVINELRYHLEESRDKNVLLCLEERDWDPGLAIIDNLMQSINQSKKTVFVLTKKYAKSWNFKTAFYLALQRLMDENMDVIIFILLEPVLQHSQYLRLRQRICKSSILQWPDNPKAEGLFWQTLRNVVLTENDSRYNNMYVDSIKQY
In words: agonistic activity on hTLR8, HEK-Blue hTLR cells, SEAP reporter (QUANTI-Blue). The class given is cell-based. The note with it: HEK-Blue hTLR cells, SEAP reporter, OD650, cultured 1 day; read-out: TLR 8 EC50. On the procedure:
Experiments on the agonistic activity of TLR7 and TLR8 by the compounds in vitro
(§1) The compound was diluted with 1:3 series with DMSO for 9 concentration points, duplicated wells, and added to 96-well plate with Echo.
(§2) The HEK-Blue™ hTLR cells were suspended in the culture medium and then seeded into a 96-well plate containing the compound at a density of 50,000 cells/well. Cells were cultured at 5% CO2 and 37° C. for 1 day. The final concentration of DMSO in the cell culture medium was 0.5%.
20 uL cell culture supernatant was taken, according to the QUANTI-Blue instructions, the reporter gene SEAP in the supernatant was detected, and the OD650 signal value was read with a microplate reader to calculate the agonist activity of the compound on the hTLR7 and hTLR8.
(§3) The EC50 and CC50 values of the compound were calculated by GraphPad Prism software, and the fitting curve was plotted.

The nature of series [1]: cytotoxicity, cell viability by CellTiter-Glo. The note with it: human, HEK-Blue hTLR cells, cultured 1 day. The class given is cell-based, human. As to the method:
as §1, §2
According to the CellTiter-Glo instructions, the cell viability was measured, and the Luminescence signal value was read by the microplate reader, which was used to calculate the cytotoxicity of the compound.
as §3

pEC50: −log10 of the molar value. Bounds are passed on as bounds.

Consider `CCOCc1nc2c(N)nc3ccccc3c2n1C[C@@H](C)O[P@](=O)(N[C@@H](C)C(=O)OC(C)C)Oc1ccc2ccccc2c1` (single isomer, unassigned) [Example 6B], for which the pEC50 at hTLR8 is 7.64. This molecule gave a CC50 at 1 day in series [1] above 30000 nM. As to `CCOCc1nc2c(N)nc3ccccc3c2n1C[C@@H](C)O[P@@](=O)(N[C@@H](C)C(=O)OC(C)C)Oc1ccccc1C` (single isomer, unassigned) [Example 7A], the negative logarithm of the EC50 (pEC50) at hTLR8 is 6.67. Besides, in series [1], the CC50 at 1 day is above 30000 nM. The like results for `CCOCc1nc2c(N)nc3ccccc3c2n1C[C@@H](C)O[P@](=O)(N[C@@H](C)C(=O)OC(C)C)Oc1ccccc1C` (single isomer, unassigned) [Example 7B] were, in that order, 7.39 and above 30000 nM.

For the molecule `CCOCc1nc2c(N)nc3ccccc3c2n1C[C@@H](C)O[P@@](=O)(N[C@@H](C)C(=O)OC(C)C)Oc1cccc(C)c1` (single isomer, unassigned) [Example 8A], the pEC50 on hTLR8 is 7.44. For the same molecule, the CC50 at 1 day in series [1] is above 30000 nM.

`CCOCc1nc2c(N)nc3ccccc3c2n1C[C@@H](C)O[P@](=O)(N[C@@H](C)C(=O)OC(C)C)Oc1cccc(C)c1` (single isomer, unassigned) [Example 8B]: at hTLR8, the pEC50 was 7.19. The molecule also yielded a CC50 at 1 day in series [1] above 30000 nM. As for `CCOCc1nc2c(N)nc3ccccc3c2n1C[C@@H](C)O[P@](=O)(N[C@@H](C)C(=O)OC(C)C)Oc1ccc(C)cc1` (single isomer, unassigned) [Example 9B], the pEC50 on hTLR8 was 7.15. The CC50 at 1 day in series [1] is above 30000 nM. On to `CCOCc1nc2c(N)nc3ccccc3c2n1C[C@@H](C)O[P@@](=O)(N[C@@H](C)C(=O)OC(C)C)Oc1ccccc1Cl` (single isomer, unassigned) [Example 10A], for which the pEC50 on hTLR8 is 7.47. This molecule had a CC50 at 1 day in series [1] above 30000 nM.

Turning to `CCOCc1nc2c(N)nc3ccccc3c2n1C[C@@H](C)O[P@](=O)(N[C@@H](C)C(=O)OC(C)C)Oc1ccccc1Cl` (single isomer, unassigned) [Example 10B], the pEC50 at hTLR8 was 7.89. The molecule further registered a cytotoxic concentration (CC50) at 1 day in series [1] above 30000 nM. Turning to `CCOCc1nc2c(N)nc3ccccc3c2n1C[C@@H](C)O[P@](=O)(N[C@@H](C)C(=O)OC(C)C)Oc1cccc(Cl)c1` (single isomer, unassigned) [Example 11B], the pEC50 at hTLR8 was 7.15. The CC50 at 1 day in series [1] is above 30000 nM. For `CCOCc1nc2c(N)nc3ccccc3c2n1C[C@@H](C)O[P@](=O)(N[C@@H](C)C(=O)OC(C)C)Oc1ccc(Cl)cc1` (single isomer, unassigned) [Example 12B], the pEC50 on hTLR8 is 7.31. For the same molecule, the 50% cytotoxic concentration (CC50) at 1 day in series [1] is above 30000 nM. For the molecule `CCOCc1nc2c(N)nc3ccccc3c2n1C[C@@H](C)O[P@@](=O)(N[C@H](C)C(=O)OC(C)C)Oc1ccccc1` (single isomer, unassigned) [Example 13A], the pEC50 at hTLR8 was 6.12. This molecule also yielded a CC50 at 1 day in series [1] above 30000 nM. For `CCOCc1nc2c(N)nc3ccccc3c2n1C[C@@H](C)O[P@](=O)(N[C@H](C)C(=O)OC(C)C)Oc1ccccc1` (single isomer, unassigned) [Example 13B], on hTLR8, the pEC50 is 5.73. In series [1], this molecule gave a 50% cytotoxic concentration (CC50) at 1 day above 30000 nM. Consider `CCOCc1nc2c(N)nc3ccccc3c2n1C[C@@H](C)O[P@](=O)(N[C@@H](C)C(=O)OC(C)(C)C)Oc1ccccc1` (single isomer, unassigned) [Example 14B], for which the pEC50 at hTLR8 was 5.89. The molecule also yielded a 50% cytotoxic concentration (CC50) at 1 day in series [1] above 30000 nM. Regarding `CCOCc1nc2c(N)nc3ccccc3c2n1C[C@@H](C)O[P@@](=O)(N[C@@H](C)C(=O)OC)Oc1ccccc1` (single isomer, unassigned) [Example 15A], the pEC50 on hTLR8 is 7.17. Besides, the CC50 at 1 day in series [1] is above 30000 nM. Regarding `CCOCc1nc2c(N)nc3ccccc3c2n1C[C@@H](C)O[P@](=O)(N[C@@H](C)C(=O)OC)Oc1ccccc1` (single isomer, unassigned) [Example 15B], the negative logarithm of the EC50 (pEC50) at hTLR8 was 7.32. Moreover, the CC50 at 1 day in series [1] was above 30000 nM. Regarding `CCOCc1nc2c(N)nc3ccccc3c2n1C[C@@H](C)O[P@](=O)(N[C@@H](C)C(=O)OCc1ccccc1)Oc1ccccc1` (single isomer, unassigned) [Example 16B], the pEC50 at hTLR8 is 7.94. The molecule further showed a CC50 at 1 day in series [1] above 30000 nM. Take `CCOCc1nc2c(N)nc3ccccc3c2n1C[C@@H](C)O[P@](=O)(N[C@@H](C)C(=O)OC(C)(C)C)Oc1ccc(C)cc1` (single isomer, unassigned) [Example 17B]: the pEC50 at hTLR8 is 5.53. The molecule further came in with a CC50 at 1 day in series [1] above 30000 nM. As to `CCOCc1nc2c(N)nc3ccccc3c2n1C[C@@H](C)O[P@](=O)(N[C@@H](C)C(=O)OC(C)(C)C)Oc1ccc(OC)cc1` (single isomer, unassigned) [Example 18B], at hTLR8, the pEC50 is 5.61. This molecule gave a CC50 at 1 day in series [1] above 30000 nM. The like results for `CCOCc1nc2c(N)nc3ccccc3c2n1C[C@@H](C)O[P@](=O)(N[C@@H](C)C(=O)OC(C)(C)C)Oc1ccc(Cl)cc1` (single isomer, unassigned) [Example 19B] were, in that order, 5.60 and above 30000 nM. In the case of `CCOCc1nc2c(N)nc3ccccc3c2n1C[C@@H](C)OP(=O)(N[C@@H](C)C(F)(F)F)Oc1ccccc1` (single isomer, unassigned) [Example 24A], on hTLR8, the negative logarithm of the EC50 (pEC50) was below 4.52. As for `CCOCc1nc2c(N)nc3ccccc3c2n1C[C@@H](C)OP(=O)(N[C@H](C(=O)OC(C)(C)C)C(C)C)Oc1ccc(Cl)cc1` (stereo partly shown) [Example 22], at hTLR8, the pEC50 was 5.74. `CCOCc1nc2c(N)nc3ccccc3c2n1C[C@@H](C)O[P@@](=O)(N[C@@H](C)C(C)C)Oc1ccc(Cl)cc1` [Example 23A, (R)-1-(4-amino-2-(ethoxymethyl)-1H-imidazo [4,5-c]quinolin-1-yl) propan-2-yl (4-chlorophenyl) (S)—((S)-3-methylbutan-2-yl) phosphoramide]: the negative logarithm of the EC50 (pEC50) on hTLR8 is below 4.52. In the case of `CCOCc1nc2c(N)nc3ccccc3c2n1C[C@@H](C)O[P@](=O)(N[C@@H](C)C(C)C)Oc1ccc(Cl)cc1` [Example 23B, (R)-1-(4-amino-2-(ethoxymethyl)-1H-imidazo [4,5-c]quinolin-1-yl) propan-2-yl (4-chlorophenyl) (R)—((S)-3-methylbutan-2-yl) phosphoramide], the negative-log EC50 (pEC50) on hTLR8 is 4.74. On to `CCOCc1nc2c(N)nc3ccccc3c2n1C[C@@H](C)O[P@](=O)(N[C@@H](C)C(F)(F)F)Oc1ccc(Cl)cc1` [Example 24B, (R)-1-(4-amino-2-(ethoxymethyl)-1H-imidazo [4,5-c]quinolin-1-yl) propan-2-yl (4-chlorophenyl) (R)—((S)-1,1,1-trifluoropropan-2-yl) phosphoramide], for which the pEC50 on hTLR8 was below 4.52.

Turning to `CCOCc1nc2c(N)nc3ccccc3c2n1C[C@@H](C)O[P@@](=O)(N[C@@H](C)COC)Oc1ccc(Cl)cc1` [Example 25A, (R)-1-(4-amino-2-(ethoxymethyl)-1H-imidazo [4,5-c]quinolin-1-yl) propan-2-yl (4-chlorophenyl) (S)—((S)-1-methoxypropan-2-yl) phosphoramide], the pEC50 on hTLR8 is below 4.52. Regarding `CCOCc1nc2c(N)nc3ccccc3c2n1C[C@@H](C)O[P@](=O)(N[C@@H](C)COC)Oc1ccc(Cl)cc1` [Example 25B, (R)-1-(4-amino-2-(ethoxymethyl)-1H-imidazo [4,5-c]quinolin-1-yl) propan-2-yl (4-chlorophenyl) (R)—((S)-1-methoxypropan-2-yl) Phosphoramide], the negative logarithm of the EC50 (pEC50) at hTLR8 is below 4.52. In series [1], `CCOCc1nc2c(N)nc3ccccc3c2n1CC(C)(C)O` [Example R848, reference compound] returned a CC50 at 1 day above 10000 nM.
